We go through twelve molecules from patent US12528812B2 (Genentech, Inc., priority 2020, dated 2026).

In general, Ki refers to the equilibrium dissociation constant of an inhibitor or competing ligand from its target.

For test [1], the target named is Recombinant human JAK2 kinase domain protein (Residues 812-1132) (Homo sapiens, UniProt O60674). Briefly: JAK2 biochemical assay (LabChip mobility shift, Ki). Particulars: Biochem JAK2 Ki.
The target in test [2] is T1, recombinant human JAK1 kinase domain protein (Residues 854-1154) (Homo sapiens, UniProt P23458).
T1 construct: human JAK1 kinase domain protein (Residues 854-1154); purchased Proteros Biostructures GmbH (Martinsried, Germany); host or cells: insect cells
Nature of the test: JAK1 biochemical assay (LabChip mobility shift, Ki). The following applies: read-out: Biochem JAK1 Ki.

The test system of test [3] is IL-13-stimulated STAT6 phosphorylation in human lung bronchial epithelial BEAS-2B cell line. Nature of the test: P-STAT6 BEAS-2B + IL-13 cell assay. The test is classed as cell-based. Particulars: BEAS2B cells, IL13 stimulation, read-out: Cellular JAK1 PSTAT6 BEAS2B + IL13. The gist of the method: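 Phospho-STAT6 (Tyr641) was quantified in lysates by MSD electrochemiluminescence after human IL-13 challenge (250 ng/mL stock, 15 min, 37 °C). Before that, BEAS-2B cells cultured 48 h had 1 h compound exposure over 10 concentrations. Percent of control was fitted to a four-parameter logistic model to give IC50.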

For test [4], the system named is EPO-stimulated P-STAT5 in TF-1 human erythroleukemia cells. Briefly: P-STAT5 TF-1 + EPO assay (JAK2 pathway). The test is classed as cell-based. The following applies: EPO stimulation, read-out: Cellular JAK2 PSTAT5 TF-1 + EPO. The method, then:
(§1) TF-1 human erythroleukemia cells (ATCC′; Manassas, VA; Catalog No. CRL-2003™) were grown in Roswell Park Memorial Institute (RPMI) medium supplemented with 10% heat-inactivated fetal bovine serum (FBS), 2 ng/mL granulocyte-macrophage colony-stimulating factor, 1× non-essential amino acids (NEAA), and 1 mM sodium pyruvate. The day before the assay, the cultures were transferred to Opti-MEM™, 1×NEAA, 1 mM sodium pyruvate, and 0.5% charcoal-stripped FBS (starve medium). Inhibitor stock solutions (5 mM in DMSO) were serially diluted 1:2 in DMSO to generate a 10-point concentration titration (at 500× test concentration), which was further diluted by a 50-fold dilution in Assay Medium (RPMI containing 1×NEAA and 1 mM sodium pyruvate) to generate a 10× concentration titration (in 2% DMSO). The cells (300,000 cells/well in 35 μL of Assay Medium) were seeded in 384-well Greiner plates. Diluted inhibitor at 10× concentration (5 μL) was added to the cells and the plates were incubated for 30 minutes at 37° C. in a humidified incubator. Cells were stimulated with the human recombinant cytokine at the respective EC90 concentrations, as previously determined for each individual lot. For the phosphorylated signal transducer and activator of transcription 6 (P-STAT6) TF-1+Interleukin-13 (IL-13) assay, 10 μL of 250 ng/mL IL-13 (R&D Systems; Minneapolis, MN) was added to the cells, which were then incubated for 10 minutes at 37° C. For the P-STAT5 TF-1+Erythropoietin (EPO) assay, 10 μL of 110 IU/mL EPO (Gibco Life Technologies, Catalog No. PHC2054) was added to the cells, which were then incubated for […] at 37° C. For both assays, the incubation was followed by addition to the cells of 5 μL of ice-cold 10× cell lysis buffer (Cell Signaling Technologies; Danvers, MA; Catalog No. 9803S) containing 1 mM phenylmethylsulfonyl fluoride (PMSF). Assay plates were frozen at −80° C. for a minimum of 1 hour. In the IL-13 assay, P-STAT6 was measured by coating goat anti-rabbit (GAR) plates (Meso Scale Discovery [MSD]; Rockville, MD; Catalog No. MSD L21RA-1) with rabbit anti-human total STAT6 antibody (Cell Signaling Technologies; Catalog No. 9362S), incubating the cell lysates in the coated plates overnight at 4° C., and then detecting with mouse anti-P-STAT6 (Tyr641) Clone 16E12 antibody (MilliporeSigma; Burlington, MA; Catalog No. 05-590, custom labeled by MSD with SULFO-tag) using standard MSD plate processing, washing, and detection protocols. In the EPO assay, P-STAT5 was detected using the phospho-STAT5a,b Whole Cell Lysate Kit (MSD; Catalog No. K150IGD-1). The electrochemiluminescence (ECL) signal of wells was read on the MESO SECTOR 5600 (MSD) reader.
(§2) Data analysis was performed by subtracting the negative control (cytokine stimulated and 20 μM control inhibitor-treated cells) mean ECL value from the ECL value of all wells, determining percent of control for test compound well ECL values relative to the positive control (cytokine stimulated and DMSO-treated cells) mean ECL value, and determining the IC50 for test compounds with a four-parameter logistic fit model as shown in Equation 4.

Test [5] deals with IL-13-stimulated P-STAT6 in TF-1 human erythroleukemia cells. Briefly: P-STAT6 TF-1 + IL-13 assay (JAK1 pathway). The format is cell-based. The following applies: IL13 stimulation, read-out: Cellular JAK1 PSTAT6 TF-1 + IL13. The protocol:
as §1, §2

Like-named read-outs stand apart in the source and are kept apart here.

T1 sequence (P23458 854-1154): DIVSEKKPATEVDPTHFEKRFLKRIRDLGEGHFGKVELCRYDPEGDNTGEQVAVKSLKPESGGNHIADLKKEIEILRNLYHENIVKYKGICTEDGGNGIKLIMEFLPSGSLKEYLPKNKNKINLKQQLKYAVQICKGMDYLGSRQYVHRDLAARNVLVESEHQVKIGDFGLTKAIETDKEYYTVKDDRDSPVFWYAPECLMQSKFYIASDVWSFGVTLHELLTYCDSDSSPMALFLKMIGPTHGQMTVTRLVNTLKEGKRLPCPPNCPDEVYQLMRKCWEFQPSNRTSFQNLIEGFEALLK
Sequence of Recombinant human JAK2 kinase domain protein (Residues 812-1132) (O60674 812-1132): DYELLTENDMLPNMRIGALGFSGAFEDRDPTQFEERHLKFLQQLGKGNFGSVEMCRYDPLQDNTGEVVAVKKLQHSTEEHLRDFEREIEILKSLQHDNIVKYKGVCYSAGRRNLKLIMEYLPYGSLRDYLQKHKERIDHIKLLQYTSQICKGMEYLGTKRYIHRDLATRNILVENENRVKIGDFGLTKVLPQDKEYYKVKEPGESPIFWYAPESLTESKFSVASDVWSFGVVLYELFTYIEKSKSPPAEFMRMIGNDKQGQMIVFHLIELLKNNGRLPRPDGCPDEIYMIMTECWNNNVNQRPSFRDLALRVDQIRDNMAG

As to `Cn1cc(NC(=O)c2cnn3cccnc23)c(-c2cc(Oc3cnn(C(F)F)c3)ccc2OC(F)F)n1` [Example 132, N-[3-[2-(difluoromethoxy)-5-[1-(difluoromethyl)pyrazol-4-yl]oxy-phenyl]-1-methyl-pyrazol-4-yl]pyrazolo[1,5-a]pyrimidine-3-carboxamide], the Ki is 0.24 nM in test [1] and 0.4 nM in test [2]. Also, the IC50 worked out at 14 nM in test [3] (Homo sapiens, BEAS-2B); 7.6 nM in test [4] (Homo sapiens, TF-1, TF-1 cells); 4.6 nM in test [5] (Homo sapiens, TF-1, TF-1 cells).

Regarding `CN(C)Cc1cncc(Oc2ccc(OC(F)F)c(-c3nn(C)cc3NC(=O)c3cnn4cccnc34)c2)c1` [Example 133, N-[3-[2-(difluoromethoxy)-5-[[5-[(dimethylamino)methyl]-3-pyridyl]oxy]phenyl]-1-methyl-pyrazol-4-yl]pyrazolo[1,5-a]pyrimidine-3-carboxamide], the inhibition constant Ki was 1.2 nM in test [1] and 1.1 nM in test [2]. Moreover, the IC50 in test [3] (Homo sapiens, BEAS-2B) turned out to be 62 nM; in test [4] (Homo sapiens, TF-1, TF-1 cells) it was 24 nM; in test [5] (Homo sapiens, TF-1, TF-1 cells), 13 nM.

As for `Cn1ccc(Oc2ccc(OC(F)F)c(-c3nn(C)cc3NC(=O)c3cnn4cccnc34)c2)n1` [Example 143, N-[3-[2-(difluoromethoxy)-5-(1-methylpyrazol-3-yl)oxy-phenyl]-1-methyl-pyrazol-4-yl]pyrazolo[1,5-a]pyrimidine-3-carboxamide], the Ki in test [1] turned out to be 0.36 nM; in test [2] it was 0.69 nM. Also, the IC50 in test [3] (Homo sapiens, BEAS-2B) worked out at 26 nM; in test [4] (Homo sapiens, TF-1, TF-1 cells), 23 nM; in test [5] (Homo sapiens, TF-1, TF-1 cells), 3 nM.

On to `Cn1cc(NC(=O)c2cnn3cccnc23)c(-c2cc(Oc3cn[nH]c3)ccc2OC(F)F)n1` [Example 160, N-[3-[2-(difluoromethoxy)-5-(1H-pyrazol-4-yloxy)phenyl]-1-methyl-pyrazol-4-yl]pyrazolo[1,5-a]pyrimidine-3-carboxamide], for which the Ki in test [1] stood at 0.07 nM; in test [2], 0.1 nM. Besides, the IC50 in test [3] (Homo sapiens, BEAS-2B) turned out to be 8.3 nM; in test [4] (Homo sapiens, TF-1, TF-1 cells), 3.6 nM; in test [5] (Homo sapiens, TF-1, TF-1 cells) it was 2.1 nM.

`O=C(Nc1c[nH]nc1-c1cc(Oc2cn[nH]c2)ccc1OC(F)F)c1cnn2cccnc12` [Example 173, N-[3-[2-(difluoromethoxy)-5-(1H-pyrazol-4-yloxy)phenyl]-1H-pyrazol-4-yl]pyrazolo[1,5-a]pyrimidine-3-carboxamide]: the Ki in test [1] came to 0.076 nM; in test [2] it was 0.13 nM. The IC50 in test [3] (Homo sapiens, BEAS-2B) came out at 82 nM; in test [4] (Homo sapiens, TF-1, TF-1 cells) it was 68 nM; in test [5] (Homo sapiens, TF-1, TF-1 cells), 24 nM.

As for `CN1CC(O)C(n2cc(Oc3ccc(OC(F)F)c(-c4nn(C)cc4NC(=O)c4cnn5cccnc45)c3)cn2)C1` (stereo not drawn) [Example 178, N-[3-[2-(difluoromethoxy)-5-[1-(4-hydroxy-l-methyl-pyrrolidin-3-yl)pyrazol-4-yl]oxy-phenyl]-1-methyl-pyrazol-4-yl]pyrazolo[1,5-a]pyrimidine-3-carboxamide], the Ki came to 0.21 nM in test [1] and 0.29 nM in test [2]. Moreover, the IC50 was 32 nM in test [3] (Homo sapiens, BEAS-2B); 49 nM in test [4] (Homo sapiens, TF-1, TF-1 cells); 26 nM in test [5] (TF-1 cells).

As for `CN1CC(O)C(n2cc(Oc3ccc(OC(F)F)c(-c4nn(C)cc4NC(=O)c4cnn5cccnc45)c3)cn2)C1` (stereo not drawn) [Example 179, N-[3-[2-(difluoromethoxy)-5-[1-(4-hydroxy-l-methyl-pyrrolidin-3-yl)pyrazol-4-yl]oxy-phenyl]-1-methyl-pyrazol-4-yl]pyrazolo[1,5-a]pyrimidine-3-carboxamide], the figures for the Ki in test [1] and in test [2] were 0.4 nM and 0.82 nM, respectively. In addition, the values for the IC50 in test [3], in test [4] (TF-1 cells) and in test [5] (TF-1 cells) were 50 nM, 72 nM and 92 nM, respectively.

Take `CN1CCC(n2cc(Oc3ccc(OC(F)F)c(-c4nn(C)cc4NC(=O)c4cnn5cccnc45)c3)cn2)C(O)C1` (stereo not drawn) [Example 186, N-[3-[2-(difluoromethoxy)-5-[1-(3-hydroxy-1-methyl-4-piperidyl)pyrazol-4-yl]oxy-phenyl]-1-methyl-pyrazol-4-yl]pyrazolo[1,5-a]pyrimidine-3-carboxamide]: the results for the Ki in test [1] and in test [2] were 0.39 nM and 0.76 nM, respectively. The IC50 in test [3] (Homo sapiens, BEAS-2B) was 48 nM; in test [4] (Homo sapiens, TF-1, TF-1 cells), 58 nM; in test [5] (Homo sapiens, TF-1, TF-1 cells), 22 nM.

As for `CN1CCC(n2cc(Oc3ccc(OC(F)F)c(-c4nn(C)cc4NC(=O)c4cnn5cccnc45)c3)cn2)C(O)C1` (stereo not drawn) [Example 187, N-[3-[2-(difluoromethoxy)-5-[1-(3-hydroxy-1-methyl-4-piperidyl)pyrazol-4-yl]oxy-phenyl]-1-methyl-pyrazol-4-yl]pyrazolo[1,5-a]pyrimidine-3-carboxamide], the Ki was found to be 0.24 nM in test [1] and 0.35 nM in test [2]. For the same molecule, the IC50 is 44 nM in test [3], 38 nM in test [4] (TF-1 cells) and 34 nM in test [5] (TF-1 cells).

For `CN1CC(O)(c2cccc(Oc3ccc(OC(F)F)c(-c4nn(C)cc4NC(=O)c4cnn5cccnc45)c3)n2)C1` [Example 190, N-[3-[2-(difluoromethoxy)-5-[[6-(3-hydroxy-l-methyl-azetidin-3-yl)-2-pyridyl]oxy]phenyl]-1-methyl-pyrazol-4-yl]pyrazolo[1,5-a]pyrimidine-3-carboxamide], the Ki was 1 nM in test [1] and 1.4 nM in test [2]. The IC50 in test [3] (Homo sapiens, BEAS-2B) came out at 38 nM; in test [4] (Homo sapiens, TF-1, TF-1 cells), 130 nM; in test [5] (Homo sapiens, TF-1, TF-1 cells), 180 nM.

As for `CC(=O)n1cc(Oc2ccc(OC(F)F)c(-c3nn(C)cc3NC(=O)c3cnn4cccnc34)c2)cn1` [Example 192, N-[3-[5-(1-acetylpyrazol-4-yl)oxy-2-(difluoromethoxy)phenyl]-1-methyl-pyrazol-4-yl]pyrazolo[1,5-a]pyrimidine-3-carboxamide], the Ki was 0.2 nM in test [1] and 0.28 nM in test [2]. Also, the IC50 in test [3] (Homo sapiens, BEAS-2B) turned out to be 9.3 nM; in test [4] (Homo sapiens, TF-1, TF-1 cells), 2.1 nM; in test [5] (Homo sapiens, TF-1, TF-1 cells), 3.3 nM.

On to `Cn1cc(NC(=O)c2cnn3cccnc23)c(-c2cc(Oc3cnn(S(C)(=O)=O)c3)ccc2OC(F)F)n1` [Example 195, N-[3-[2-(difluoromethoxy)-5-(1-methylsulfonylpyrazol-4-yl)oxy-phenyl]-1-methyl-pyrazol-4-yl]pyrazolo[1,5-a]pyrimidine-3-carboxamide], for which the Ki in test [1] was found to be 0.26 nM; in test [2] it was 0.38 nM. The IC50 in test [3] (Homo sapiens, BEAS-2B) was 13 nM; in test [4] (Homo sapiens, TF-1, TF-1 cells), 9.7 nM; in test [5] (Homo sapiens, TF-1, TF-1 cells) it was 4.1 nM.
